The target of the assay is Get3 (Saccharomyces cerevisiae, UniProt Q12154, D57N). The experiment in a line: mant-ATP chase titration, fluorescence. The following applies: 1 uM Get3(D57N), 1 uM mant-ATP; 50 mM HEPES pH 7.5, 100 mM NaCl, 5 mM MgCl2; competitive with mant-ATP. It is filed as binding.
Get3, sequence (Q12154 whole entry D57N): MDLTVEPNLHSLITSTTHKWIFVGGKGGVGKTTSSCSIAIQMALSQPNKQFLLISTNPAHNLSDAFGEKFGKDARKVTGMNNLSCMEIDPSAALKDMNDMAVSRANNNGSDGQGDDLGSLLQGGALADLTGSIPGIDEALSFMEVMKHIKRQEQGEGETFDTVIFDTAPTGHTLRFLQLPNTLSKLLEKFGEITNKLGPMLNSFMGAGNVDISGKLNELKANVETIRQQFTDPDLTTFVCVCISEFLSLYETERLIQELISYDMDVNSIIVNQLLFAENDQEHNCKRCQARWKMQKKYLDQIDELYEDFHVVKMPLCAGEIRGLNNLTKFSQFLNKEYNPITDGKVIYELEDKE

`Nc1ncnc2c1ncn2[C@@H]1O[C@H](COP(=O)(O)OP(=O)(O)O)[C@@H](O)[C@H]1O` [ADP]: the dissociation constant result was “ADP (which binds weakly to substrate-free Get3; Sup. Fig. S18)”.

The values above are taken from article PMC3760497 (Nature, 2011).
